In US10047081B2, “BACE1 inhibitors” (Hoffmann-La Roche Inc., priority 2015, dated 2018):

Biological target: T1, BACE1 (Homo sapiens, UniProt P56817)
T1 construct: endogenous in cells; host or cells: HEK293 APP cells
Assay: Cellular Aβ-lowering assay (Abeta 40 AlphaLISA, HEK293 APP cells)
Format: cell-based
Conditions: 18-20 hrs incubation, Aβ 40 in culture supernatant, read-out: BACE1 cell act. Aβ40 IC50
Description: Cellular Aβ-Lowering Assay:
The Abeta 40 AlphaLISA Assay can be used. The HEK293 APP cells were seeded in 96 well Microtiter plates in cell culture medium (Iscove's, plus 10% (v/v) fetal bovine serum, penicillin/streptomycin) to about 80% confluency and the compounds were added at a 3× concentration in ⅓ volume of culture medium (final DMSO concentration was kept at 1% v/v). After 18-20 hrs incubation at 37° C. and 5% CO2 in a humidified incubator, the culture supernatants were harvested for the determination of Aβ 40 concentrations using Perkin-Elmer Human Amyloid beta 1-40 (high specificity) Kit (Cat#AL275C).
In a Perkin-Elmer White Optiplate-384 (Cat#6007290), 2 ul culture supernatants were combined with 2 μl of a 10× AlphaLISA Anti-hAβAcceptor beads + Biotinylated Antibody Anti-Aβ 1-40 Mix (50 μg/mL/5 nM). After 1 hour room temperature incubation, 16 μl of a 1.25× preparation of Streptavidin (SA) Donor beads (25 μg/mL) were added and incubated for 30 minutes in the Dark. Light Emission at 615 nm was then recorded using EnVision-Alpha Reader. Levels of Aβ 40 in the culture supernatants were calculated as percentage of maximum signal (cells treated with 1% DMSO without inhibitor). The IC50 values were calculated using the Excel XLfit software.

T1 sequence (P56817 46-501): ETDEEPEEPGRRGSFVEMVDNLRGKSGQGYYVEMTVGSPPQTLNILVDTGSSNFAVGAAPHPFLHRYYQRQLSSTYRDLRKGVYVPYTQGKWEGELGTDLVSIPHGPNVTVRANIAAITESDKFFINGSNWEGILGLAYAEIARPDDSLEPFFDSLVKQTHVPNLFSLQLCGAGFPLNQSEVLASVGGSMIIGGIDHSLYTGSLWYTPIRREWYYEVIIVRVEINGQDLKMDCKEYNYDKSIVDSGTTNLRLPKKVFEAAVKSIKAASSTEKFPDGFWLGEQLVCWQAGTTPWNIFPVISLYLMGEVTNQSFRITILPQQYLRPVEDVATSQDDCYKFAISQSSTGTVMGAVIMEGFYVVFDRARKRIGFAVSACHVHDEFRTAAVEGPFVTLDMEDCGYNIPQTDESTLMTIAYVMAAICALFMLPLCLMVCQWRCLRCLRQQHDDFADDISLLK

| IC50 [nM] | Structure (SMILES) |
| --- | --- |
| 141 | CN=[S@]1(=O)C[C@@](CF)(c2cc(-c3cc(-c4cnc(OC)cn4)no3)ccc2F)N=C(N)C1(C)C [Example 2, (1S,3S)-5-amino-3-(2-fluoro-5-(3-(5-methoxypyrazin-2-yl)isoxazol-5-yl)phenyl)-3-(fluoromethyl)-6,6-dimethyl-1-(methylimino)-3,6-dihydro-2H-1,4-thiazine 1-oxide 2,2,2-trifluoroacetate] |
| 89 | CN=[S@@]1(=O)C[C@@](CF)(c2cc(-c3cc(-c4ncc(Cl)cn4)no3)ccc2F)N=C(N)C1(C)C [Example 3, (1R,3S)-5-amino-3-(5-(3-(5-chloropyrimidin-2-yl)isoxazol-5-yl)-2-fluorophenyl)-3-(fluoromethyl)-6,6-dimethyl-1-(methylimino)-3,6-dihydro-2H-1,4-thiazine 1-oxide 2,2,2-trifluoroacetate] |
| 111 | CN=[S@@]1(=O)C[C@@](CF)(c2cc(-c3cc(-c4cnc(OCC(F)F)cn4)no3)ccc2F)N=C(N)C1(C)C [Example 4, (1R,3S)-5-amino-3-(5-(3-(5-(2,2-difluoroethoxy)pyrazin-2-yl)isoxazol-5-yl)-2-fluorophenyl)-3-(fluoromethyl)-6,6-dimethyl-1-(methylimino)-3,6-dihydro-2H-1,4-thiazine 1-oxide 2,2,2-trifluoroacetate] |
| 22 | CN=[S@@]1(=O)C[C@@](C)(c2cc(-c3cc(-c4ncc(C#N)cn4)no3)ccc2F)N=C(N)C1(C)C [Example 8, 2-(5-(3-((1R,3R)-5-amino-3,6,6-trimethyl-1-(methylimino)-1-oxido-3,6-dihydro-2H-1,4-thiazin-3-yl)-4-fluorophenyl)isoxazol-3-yl)pyrimidine-5-carbonitrile 2,2,2-trifluoroacetate] |
| 17 | CN=[S@@]1(=O)C[C@@](C)(c2cc(-c3cn(-c4ccc(Cl)cn4)nn3)ccc2F)N=C(N)C1(C)C [Example 9, (1R,3R)-5-amino-3-(5-(1-(5-chloropyridin-2-yl)-1H-1,2,3-triazol-4-yl)-2-fluorophenyl)-3,6,6-trimethyl-1-(methylimino)-3,6-dihydro-2H-1,4-thiazine 1-oxide 2,2,2-trifluoroacetate] |
| 20 | CN=[S@@]1(=O)C[C@@](C)(c2cc(-c3cn(-c4ccc(C#N)cn4)nn3)ccc2F)N=C(N)C1(C)C [Example 10, 6-(4-(3-((1R,3R)-5-amino-3,6,6-trimethyl-1-(methylimino)-1-oxido-3,6-dihydro-2H-1,4-thiazin-3-yl)-4-fluorophenyl)-1H-1,2,3-triazol-1-yl)nicotinonitrile 2,2,2-trifluoroacetate] |
| 51 | CN=[S@]1(=O)C[C@@](C)(c2cc(-c3cc(-c4cnc(OCC(F)F)cn4)no3)ccc2F)N=C(N)C1(C)C [Example 11, (1S,3R)-5-amino-3-(5-(3-(5-(2,2-difluoroethoxy)pyrazin-2-yl)isoxazol-5-yl)-2-fluorophenyl)-3,6,6-trimethyl-1-(methylimino)-3,6-dihydro-2H-1,4-thiazine 1-oxide 2,2,2-trifluoroacetate] |
| 19 | CN=[S@]1(=O)C[C@@](C)(c2cc(-c3cc(-c4ncc(Cl)cn4)no3)ccc2F)N=C(N)C1(C)C [Example 12, (1S,3R)-5-amino-3-(5-(3-(5-chloropyrimidin-2-yl)isoxazol-5-yl)-2-fluorophenyl)-3,6,6-trimethyl-1-(methylimino)-3,6-dihydro-2H-1,4-thiazine 1-oxide 2,2,2-trifluoroacetate] |
| 106 | CN=[S@]1(=O)C[C@@](CF)(c2cc(-c3cc(-c4ncc(OC)cn4)no3)ccc2F)N=C(N)C1(C)C [Example 13, (1S,3S)-5-amino-3-(2-fluoro-5-(3-(5-methoxypyrimidin-2-yl)isoxazol-5-yl)phenyl)-3-(fluoromethyl)-6,6-dimethyl-1-(methylimino)-3,6-dihydro-2H-1,4-thiazine 1-oxide] |
| 103 | CN=[S@@]1(=O)C[C@@](CF)(c2cc(-c3cn(-c4ccc(C#N)cn4)nn3)ccc2F)N=C(N)C1(C)C [Example 14, 6-(4-(3-((1R,3S)-5-amino-3-(fluoromethyl)-6,6-dimethyl-1-(methylimino)-1-oxido-3,6-dihydro-2H-1,4-thiazin-3-yl)-4-fluorophenyl)-1H-1,2,3-triazol-1-yl)nicotinonitrile 2,2,2-trifluoroacetate] |
| 344 | CN=[S@@]1(=O)C[C@@](CF)(c2cc(-c3cc(-c4ncc(Br)cc4C)no3)ccc2F)N=C(N)C1(C)C [Example 15, (1R,3S)-5-amino-3-(5-(3-(5-bromo-3-methylpyridin-2-yl)isoxazol-5-yl)-2-fluorophenyl)-3-(fluoromethyl)-6,6-dimethyl-1-(methylimino)-3,6-dihydro-2H-1,4-thiazine 1-oxide 2,2,2-trifluoroacetate] |
| 156 | CN=[S@@]1(=O)C[C@@](CF)(c2cc(-c3cn(-c4ccc(Cl)cn4)nn3)ccc2F)N=C(N)C1(C)C [Example 16, (1R,3S)-5-amino-3-(5-(1-(5-chloropyridin-2-yl)-1H-1,2,3-triazol-4-yl)-2-fluorophenyl)-3-(fluoromethyl)-6,6-dimethyl-1-(methylimino)-3,6-dihydro-2H-1,4-thiazine 1-oxide 2,2,2-trifluoroacetate] |
| 119 | CN=[S@@]1(=O)C[C@@](CF)(c2cc(-c3cc(-c4ncc(OC)cn4)no3)ccc2F)N=C(N)C1(C)C [Example 17, (1R,3S)-3-[2-fluoro-5-[3-(5-methoxypyrimidin-2-yl)isoxazol-5-yl]phenyl]-3-(fluoromethyl)-6,6-dimethyl-1-methylimino-1-oxo-2H-1,4-thiazin-5-amine] |
| 13 | CN=[S@@]1(=O)C[C@@](C)(c2cc(-c3cc(-c4ncc(OCC(F)F)cn4)no3)ccc2F)N=C(N)C1(C)C [Example 18, (1R,3R)-3-[5-[3-[5-(2,2-difluoroethoxy)pyrimidin-2-yl]isoxazol-5-yl]-2-fluoro-phenyl]-3,6,6-trimethyl-1-methylimino-1-oxo-2H-1,4-thiazin-5-amine] |
| 27 | CN=[S@]1(=O)C[C@@](C)(c2cc(-c3cc(-c4ncc(OCC(F)F)cn4)no3)ccc2F)N=C(N)C1(C)C [Example 19, (1S,3R)-3-[5-[3-[5-(2,2-difluoroethoxy)pyrimidin-2-yl]isoxazol-5-yl]-2-fluoro-phenyl]-3,6,6-trimethyl-1-methylimino-1-oxo-2H-1,4-thiazin-5-amine] |
| 3 | CN=[S@@]1(=O)C[C@@](C)(c2cc(-c3cc(-c4ncc(OC)cn4)no3)ccc2F)N=C(N)C1(C)C [Example 20, (1R,3R)-5-amino-3-(2-fluoro-5-(3-(5-methoxypyrimidin-2-yl)isoxazol-5-yl)phenyl)-3,6,6-trimethyl-1-(methylimino)-3,6-dihydro-2H-1,4-thiazine 1-oxide] |
| 9 | CN=[S@@]1(=O)C[C@@](C)(c2cc(-c3cc(-c4cnc(OCC(F)(F)F)cn4)no3)ccc2F)N=C(N)C1(C)C [Example 21, (1R,3R)-5-amino-3-(2-fluoro-5-(3-(5-(2,2,2-trifluoroethoxy)pyrazin-2-yl)isoxazol-5-yl)phenyl)-3,6,6-trimethyl-1-(methylimino)-3,6-dihydro-2H-1,4-thiazine 1-oxide 2,2,2-trifluoroacetate] |
| 61 | CN=[S@@]1(=O)C[C@@](C)(c2cc(-c3cc(-c4cnc(OCC5CC5)cn4)no3)ccc2F)N=C(N)C1(C)C [Example 22, (1R,3R)-5-amino-3-(5-(3-(5-(cyclopropylmethoxy)pyrazin-2-yl)isoxazol-5-yl)-2-fluorophenyl)-3,6,6-trimethyl-1-(methylimino)-3,6-dihydro-2H-1,4-thiazine 1-oxide] |
| > 1000 | CN=[S@@]1(=O)C[C@@](C)(c2cc(-c3cc(-c4cnc(O)cn4)no3)ccc2F)N=C(N)C1(C)C [Example 23, (1R,3R)-5-amino-3-(2-fluoro-5-(3-(5-hydroxypyrazin-2-yl)isoxazol-5-yl)phenyl)-3,6,6-trimethyl-1-(methylimino)-3,6-dihydro-2H-1,4-thiazine 1-oxide] |
| 13 | [2H]C([2H])([2H])N=[S@@]1(=O)C[C@@](C)(c2cc(-c3cc(-c4ncc(OCC(F)(F)C(F)F)cn4)no3)ccc2F)N=C(N)C1(C)C [Example 25, (1R,3R)-3-[2-fluoro-5-[3-[5-(2,2,3,3-tetrafluoropropoxy)pyrimidin-2-yl]isoxazol-5-yl]phenyl]-3,6,6-trimethyl-1-oxo-1-(trideuteriomethylimino)-2H-1,4-thiazin-5-amine 2,2,2-trifluoroacetate] |
| 37 | [2H]C([2H])([2H])N=[S@@]1(=O)C[C@@](C)(c2cc(-c3cc(-c4ncc(CC)cn4)no3)ccc2F)N=C(N)C1(C)C [Example 26, (1R,3R)-3-[5-[3-(5-ethylpyrimidin-2-yl)isoxazol-5-yl]-2-fluoro-phenyl]-3,6,6-trimethyl-1-oxo-1-(trideuteriomethylimino)-2H-1,4-thiazin-5-amine 2,2,2-trifluoroacetate] |
| 139 | CN=[S@@]1(=O)C[C@@](C)(c2cc(-c3cc(-c4cnc(OC)cn4)no3)ccc2F)N=C(N)C12CCCC2 [Example 27, (6R,8R)-10-amino-8-(2-fluoro-5-(3-(5-methoxypyrazin-2-yl)isoxazol-5-yl)phenyl)-8-methyl-6-(methylimino)-6-thia-9-azaspiro[4.5]dec-9-ene 6-oxide 2,2,2-trifluoroacetate] |
